Test results as given in patent US6395909B1, “Substituted benzopyran derivatives and their use as anticonvulsants” (priority 1998, dated 2002).

Key:
[1] = target: novel receptor obtainable from rat forebrain tissue; experiment: Radioligand binding assay, [3H]-Compound A displacement in rat forebrain tissue; settings: competition with [3H]-Compound A (usually 20 nM)
Procedure: WO 92/22293 (SmithKline Beecham) discloses compounds having anti-convulsant activity, including inter alia the compound (3R, 4S)-6-acetyl-(4-fluorobenzoylamino)-3,4-dihydro-2,2-dimethyl-2H-1-benzopyran-3-ol (hereinafter referred to as Compound A). […] The affinity of test compounds to the novel receptor site is assessed as follows.
Whole forebrain tissue is obtained from rats. The tissue is first homogenised in buffer (usually 50 mM Tris/HCl, pH 7.4). The homogenised tissue is washed by centrifugation and resuspension in the same buffer, then stored at −70° C. until used.
To carry out the radioligand binding assay, aliquots of tissue prepared as above (usually at a concentration of 1-2 mg protein/ml) are mixed with aliquots of [3H]-Compound A dissolved in buffer. The final concentration of [3H]-Compound A in the mixture is usually 20 nM. The mixture is incubated at room temperature for 1 hour. [3H]-Compound A bound to the tissue is then separated from unbound [3H]-Compound A by filtration through Whatman GF/B glass fibre filters. The filters are then washed rapidly with ice-cold buffer. The amount of radioactivity bound to the tissue trapped on the filters is measured by addition of liquid scintillation cocktail to the filters followed by counting in a liquid scintillation counter. […]

[2] = system: electrically-induced seizures; experiment: Maximal electroshock seizure threshold (MEST) test; format: in vivo; settings: rat, intravenous route, solution in 20% PEG, 1 mg/kg, tested 30 min post dosing
Procedure: The maximal electroshock seizure threshold (MEST) test in rodents is particularly sensitive for detecting potential anticonvulsant properties^1. In this model, anticonvulsant agents elevate the threshold to electrically-induced seizures whilst proconvulsants lower the seizure threshold. Rats (naive male, Charles River, U.K. Sprague Dawley strain, 100-150 g) are randomly assigned to groups of 10-20 and dosed orally, intravenously or intraperitoneally at a dose volume of 1 ml/kg with various doses of compound (0.1-300 mg/kg) or vehicle. […] The mean current and standard error required to induce a tonic seizure in 50% (CC50) of the rats in a particular treatment group is determined by the ‘up and down’ method of Dixon and Mood (1948)^2. Statistical comparisons between vehicle- and drug-treated groups are made using the method of Litchfield and Wilcoxon (1949)^3. In control animals the CC50 is usually 20-30 mA. […] If a tonic convulsion does occur, then the current is decreased, and so on until all the animals in the group have been tested. The percentage increase or decrease in CC50 for each group compared to the control is calculated. Studies are carried out using a Hugo Sachs Electronik Constant Current Shock Generator with totally variable control of shock level from 0 to 300 mA and steps of 5-20 mA are usually used. […]

Row | pKi value [1] | melting point | Compound | increase in seizure threshold relative to control [2]
1 | 7.35 | 179.4 °C | CC1(C)Oc2ccc(C(=O)CO)cc2[C@H](NC(=O)c2cc(F)cc(F)c2)[C@H]1O [Example 1, (3R,4S)-4-(3,5-difluorobenzamido)-3,4-dihydro-2,2-dimethyl-3-hydroxy-6-(2-hydroxyacetyl)-2H-1-benzopyran] | 317%
2 |  | 216 °C | CC1(C)Oc2ccc(C(=O)CO)cc2[C@H](NC(=O)c2ccc(F)cc2)[C@H]1O [Example 3, (3R,4S)-4-(4-fluorobenzamido)-3,4-dihydro-2,2-dimethyl-3-hydroxy-6-(2-hydroxyacetyl)-2H-1-benzopyran] | 
